From patent US9198906B2, “Ketoconazole enantiomer in humans” (Cortendo AB (publ), priority 2006, dated 2015)

Experiments:
[1] = plasma; Beagle dogs, racemic ketoconazole 30 mg/dog intravenous bolus
Description: The pharmacokinetics of each of the ketoconazole enantiomers was studied following intravenous administration of racemic ketoconazole. Racemic ketoconazolewas dissolved in ethanol to 60 mg/ml. Each of three Beagle dogs was administered 0.5 ml bolus (30 mg/dog) intravenously.
Blood was collected from each dog prior to dosing (“0 min”) and at 2, 5, 10, 15, 30 min, and 1, 2, 4, 6, 8, and 24 hrs post-dosing. At each timepoint, blood (0.3 mL/sample) was collected and placed into labeled Microtainer® tubes with heparin as the anti-coagulant. The heparinized blood was centrifuged, and the supernatant pipetted off into another set of labeled Eppendorf® tubes. The derived plasma samples were analyzed for each of the two ketoconazole enantiomers (2S,4R and 2R,4S) and pharmacokinetic parameters determined for each of the enantiomers.

[2] = system: patients with type 2 diabetes mellitus; assay: Phase 2a trial, HbA1c (glycemic control); format: in vivo, human
Description: (§1) Five (5) dose groups were studied.
(§2) The first dose of the study drug was given on Day 1 at 2200 h. Activity markers measured on Day 1 prior to administration of the drug (“Visit 1”). The last dose of study drug was given on Day 14 at 2200 h and activity markers measured on Day 15 (“Visit 3”). Measurements of safety markers were taken on Visits 1 and 3, as well as Visit 2 (Day 8) and Visit 4 (Day 28).
This test measure levels of glycated hemoglobin and reflects the average blood glucose level for a subject over the preceding 3 months (approximately). Elevated levels are common in diabetics. Lowering the hemoglobin A1c number can delay or prevent the development of serious eye, kidney, and nerve disease in individuals with diabetes.

[3] = system: patients with type 2 diabetes mellitus; assay: Phase 2a trial, fructosamine (glycemic control); format: in vivo, human
Description: as §1, §2
Fructosamine levels were measured at baseline and after two weeks of therapy (see Table 4 and FIGS. 1 and 2). […] Fructosamine levels reflect blood glucose levels over the preceding 2-3 weeks.

[4] = system: patients with type 2 diabetes mellitus; assay: Phase 2a trial, total cholesterol; format: in vivo, human
Description: as §1, §2

[5] = system: patients with type 2 diabetes mellitus; assay: Phase 2a trial, LDL cholesterol; format: in vivo, human
Description: as §1, §2

[6] = system: patients with type 2 diabetes mellitus; assay: Phase 2a trial, continuous blood pressure monitoring; format: in vivo, human; conditions: Visits 1 and 3, 14 daily doses
Description: as §1
Continuous blood pressure monitoring was performed during Visits 1 and 3.

[7] = system: patients with type 2 diabetes mellitus; assay: Phase 2a trial, C-reactive protein (marker of inflammation); format: in vivo, human
Description: as §1, §2

[8] = system: patients with type 2 diabetes mellitus; assay: Phase 2a trial, liver function tests (AST/ALT/AP); conditions: Subject 04-016, KTZ 400 mg
Description: as §2

healthy volunteers = conditions: published reports, e.g. Morganroth et al. 1997; cited from earlier work
[9] = 400 mg po QD, 14 daily doses, Visit 3 (Day 15)
[10] = 400 mg po QD group, Visit 1 (baseline, before first dose)

SMILES: CC(=O)N1CCN(c2ccc(OC[C@H]3CO[C@](Cn4ccnc4)(c4ccc(Cl)cc4Cl)O3)cc2)CC1 (single isomer, unassigned) [2R,4S ketoconazole enantiomer, reference compound]
- clearance [1]: 1442 mL/h/kg
- terminal half life [1]: 55.8 min

SMILES: CC(=O)N1CCN(c2ccc(OCC3COC(Cn4ccnc4)(c4ccc(Cl)cc4Cl)O3)cc2)CC1 (racemic) [KTZ, 1-acetyl-4-[4-[[2-(2,4-dichlorophenyl)-2-[(1H-imidazol-1-yl)-methyl]-1,3-dioxolan-4-yl]methoxy]phenyl]piperazine, reference compound]
- Visit 1 HbA1c mean ([2]; 400 mg po QD group, Visit 1 (Day 1, before first dose, baseline)): 8.05%
- HbA1c Change vs Baseline mean ([2]; 400 mg po QD, 14 daily doses): −0.37%
- Visit 3 HbA1c mean [2, 9]: 7.68%
- Fructosamine Visit 1 mean [3, 10]: 272.57 µmol/L
- Fructosamine Change vs Baseline mean ([3]; 400 mg po QD, 14 daily doses): -2.29 µmol/L
- Fructosamine Visit 3 mean [3, 9]: 270.29 µmol/L
- Total cholesterol Visit 1 mean [4, 10]: 198.14 mg/dL
- Total cholesterol Change mean ([4]; 400 mg po QD, 14 daily doses): -33.57 mg/dL
- Total cholesterol Mean % change ([4]; 400 mg po QD, 14 daily doses): −15.46%
- Total cholesterol Visit 3 mean [4, 9]: 164.57 mg/dL
- LDL cholesterol Visit 1 mean [5, 10]: 118.71 mg/dL
- LDL cholesterol Mean % change ([5]; 400 mg po QD, 14 daily doses): −24.73%
- LDL cholesterol change mean ([5]; 400 mg po QD, 14 daily doses): -30.43 mg/dL
- LDL cholesterol Visit 3 mean [5, 9]: 88.29 mg/dL
- effect on blood pressure readings [6]: no reductions
- C-Reactive Protein (CRP) Visit 1 mean [7, 10]: 2.28 mg/L
- CRP Mean % change vs baseline ([7]; 400 mg po QD, 14 daily doses): 9.78%
- C-Reactive Protein (CRP) Visit 3 mean [7, 9]: 2.22 mg/L
- effect on CRP ([7]; 14 daily doses): did not reduce CRP levels and actually led to an increase in CRP
- ALT ([8]; Screening Visit): 28 u/L
- AP ([8]; Screening Visit): 110 u/L
- AST ([8]; Screening Visit): 33 u/L
- ALT ([8]; Visit 1 (pre-1st dose)): 37 u/L
- AP ([8]; Visit 1 (pre-1st dose)): 109 u/L
- AST ([8]; Visit 1 (pre-1st dose)): 53 u/L
- ALT ([8]; Visit 2): 19 u/L
- AP ([8]; Visit 2): 137 u/L
- AST ([8]; Visit 2): 36 u/L
- ALT ([8]; Visit 3 (last dose)): 18 u/L
- AP ([8]; Visit 3 (last dose)): 103 u/L
- AST ([8]; Visit 3 (last dose)): 31 u/L
- effect on QTc interval (healthy volunteers): does not increase
